# From patent publication US6544989B2, “Benzazoles: benzoxazole, benzthiazole and benzimidazole derivatives” (Syngenta Limited, priority 1998, dated 2003)
# Columns and labels:
# [1] = test system: Uncinula necator; test: Fungicidal test, Uncinula necator (UNCINE) on vines, PRCO; format: in vivo; settings: METHOD 2 (unbanded)
# [2] = test system: Phytophthora infestans lycopersici; format: in vivo; settings: METHOD 2 (unbanded)
# [3] = test system: Venturia inaequalis; test: Fungicidal test, Venturia inaequalis (VENTIN) on apples, PRCO; format: in vivo; settings: METHOD 2 (unbanded)
# [4] = test system: Erysiphe graminis f.sp. tritici; test: Fungicidal test, Erysiphe graminis f.sp. tritici (ERYSGT) on wheat, PRCO; format: in vivo; settings: 1 d Prot/Foir; METHOD 2 (unbanded)
# [5] = test system: Septoria nodorum; test: Fungicidal test, Septoria nodorum (LEPTNO) on wheat, PRCO; format: in vivo; settings: METHOD 2 (unbanded)
# [6] = test system: Puccinia recondita; test: Fungicidal test, Puccinia recondita (PUCCRT) on wheat, PRCO; format: in vivo; settings: METHOD 2 (unbanded)
# [7] = test system: Pyricularia oryzae; format: in vivo; settings: METHOD 2 (unbanded)
# [8] = test system: Musca domestica; settings: 500 ppm by weight; knockdown assessed 15 minutes after treatment
# [9] = test system: Meloidogyne incognita; test: Nematode test, J2 infective juveniles of Meloidogyne incognita, mortality; settings: 12.5 ppm; J2 infective juveniles suspended in solution; mortality after three days
smiles,measurement,setting,value
Cc1nsc(NC(=O)Cc2ccc3oc(NC(C)(C)C)nc3c2)c1Cl [183(A3)],UNCINE 1 d Prot/Foir PRCO,[1],98
same,PHYTIN 1 d Prot/Foir PRCO,[2],100
same,VENTIN 1 d Prot/Foir PRCO,[3],98
same,ERYSGT 1 d Prot/Foir PRCO,[4],99
same,LEPTNO 1 d Prot/Foir PRCO,[5],19
same,PUCCRT 1 d Prot/Foir PRCO,[6],99
same,PYRIOR 1 d Prot/Foir PRCO,[7],99
same,"MUSCDO AC = Musca domestica (knockdown), score",[8],0 (0 indicates less than 40% mortality)
same,"MELGIN = Meloidogyne incognita, grading of mortality (score)",[9],0 (0 indicates less than 40% mortality)
Cc1nsc(NC(=O)Cc2ccc3oc(CC4CC4)nc3c2)c1Cl [41(A3)],UNCINE 1 d Prot/Foir PRCO,[1],91
same,PHYTIN 1 d Prot/Foir PRCO,[2],100
same,VENTIN 1 d Prot/Foir PRCO,[3],50
same,ERYSGT 1 d Prot/Foir PRCO,[4],59
same,LEPTNO 1 d Prot/Foir PRCO,[5],77
same,PUCCRT 1 d Prot/Foir PRCO,[6],98
same,PYRIOR 1 d Prot/Foir PRCO,[7],33
same,"MUSCDO AC = Musca domestica (knockdown), score",[8],0 (0 indicates less than 40% mortality)
same,"MELGIN = Meloidogyne incognita, grading of mortality (score)",[9],0 (0 indicates less than 40% mortality)
CCN(C(=O)Cc1ccc2oc(CC(C)(C)C)nc2c1)c1snc(C)c1Cl [15(C3)],UNCINE 1 d Prot/Foir PRCO,[1],100
same,PHYTIN 1 d Prot/Foir PRCO,[2],97
same,VENTIN 1 d Prot/Foir PRCO,[3],64
same,ERYSGT 1 d Prot/Foir PRCO,[4],38
same,LEPTNO 1 d Prot/Foir PRCO,[5],93
same,PUCCRT 1 d Prot/Foir PRCO,[6],13
same,PYRIOR 1 d Prot/Foir PRCO,[7],7
same,"MUSCDO AC = Musca domestica (knockdown), score",[8],9 (9 indicates 80-100% mortality)
same,"MELGIN = Meloidogyne incognita, grading of mortality (score)",[9],0 (0 indicates less than 40% mortality)
Cc1nsc(NC(=O)Cc2ccc3oc(N4CCOCC4)nc3c2)c1Cl [191(A3)],UNCINE 1 d Prot/Foir PRCO,[1],100
same,PHYTIN 1 d Prot/Foir PRCO,[2],92
same,VENTIN 1 d Prot/Foir PRCO,[3],10
same,ERYSGT 1 d Prot/Foir PRCO,[4],94
same,LEPTNO 1 d Prot/Foir PRCO,[5],36
same,PUCCRT 1 d Prot/Foir PRCO,[6],99
same,PYRIOR 1 d Prot/Foir PRCO,[7],92
same,"MUSCDO AC = Musca domestica (knockdown), score",[8],5 (5 indicates 40-79% mortality)
same,"MELGIN = Meloidogyne incognita, grading of mortality (score)",[9],9 (9 indicates 80-100% mortality)
CCN(C)c1nc2cc(CC(=O)Nc3snc(C)c3Cl)ccc2o1 [180(A3)],UNCINE 1 d Prot/Foir PRCO,[1],42
same,VENTIN 1 d Prot/Foir PRCO,[3],0
same,ERYSGT 1 d Prot/Foir PRCO,[4],29
same,LEPTNO 1 d Prot/Foir PRCO,[5],14
same,PUCCRT 1 d Prot/Foir PRCO,[6],69
same,PYRIOR 1 d Prot/Foir PRCO,[7],42
same,"MUSCDO AC = Musca domestica (knockdown), score",[8],0 (0 indicates less than 40% mortality)
same,"MELGIN = Meloidogyne incognita, grading of mortality (score)",[9],0 (0 indicates less than 40% mortality)
COc1nc2cc(CC(=O)Nc3snc(C)c3Cl)ccc2o1 [203(A3)],UNCINE 1 d Prot/Foir PRCO,[1],69
same,PHYTIN 1 d Prot/Foir PRCO,[2],85
same,VENTIN 1 d Prot/Foir PRCO,[3],65
same,ERYSGT 1 d Prot/Foir PRCO,[4],98
same,LEPTNO 1 d Prot/Foir PRCO,[5],−3
same,PUCCRT 1 d Prot/Foir PRCO,[6],100
same,PYRIOR 1 d Prot/Foir PRCO,[7],96
same,"MUSCDO AC = Musca domestica (knockdown), score",[8],9 (9 indicates 80-100% mortality)
same,"MELGIN = Meloidogyne incognita, grading of mortality (score)",[9],0 (0 indicates less than 40% mortality)
Cc1nc2cc(CC(=O)Nc3snc(C)c3Br)ccc2o1 [2(A4)],UNCINE 1 d Prot/Foir PRCO,[1],90
same,PHYTIN 1 d Prot/Foir PRCO,[2],100
same,VENTIN 1 d Prot/Foir PRCO,[3],92
same,ERYSGT 1 d Prot/Foir PRCO,[4],97
same,LEPTNO 1 d Prot/Foir PRCO,[5],−12
same,PUCCRT 1 d Prot/Foir PRCO,[6],100
same,PYRIOR 1 d Prot/Foir PRCO,[7],99
same,"MUSCDO AC = Musca domestica (knockdown), score",[8],5 (5 indicates 40-79% mortality)
same,"MELGIN = Meloidogyne incognita, grading of mortality (score)",[9],0 (0 indicates less than 40% mortality)
CCCc1nc2cc(CC(=O)Nc3snc(C)c3Cl)ccc2s1 [4(A13)],UNCINE 1 d Prot/Foir PRCO,[1],100
same,VENTIN 1 d Prot/Foir PRCO,[3],55
same,ERYSGT 1 d Prot/Foir PRCO,[4],100
same,LEPTNO 1 d Prot/Foir PRCO,[5],20
same,PUCCRT 1 d Prot/Foir PRCO,[6],100
same,PYRIOR 1 d Prot/Foir PRCO,[7],100
same,"MUSCDO AC = Musca domestica (knockdown), score",[8],9 (9 indicates 80-100% mortality)
same,"MELGIN = Meloidogyne incognita, grading of mortality (score)",[9],0 (0 indicates less than 40% mortality)
Cc1nc2cc(CC(=O)Nc3snc(C)c3C#N)ccc2o1 [2(A5)],UNCINE 1 d Prot/Foir PRCO,[1],3
same,PHYTIN 1 d Prot/Foir PRCO,[2],19
same,VENTIN 1 d Prot/Foir PRCO,[3],19
same,ERYSGT 1 d Prot/Foir PRCO,[4],18
same,LEPTNO 1 d Prot/Foir PRCO,[5],−2
same,PUCCRT 1 d Prot/Foir PRCO,[6],28
same,PYRIOR 1 d Prot/Foir PRCO,[7],31
same,"MELGIN = Meloidogyne incognita, grading of mortality (score)",[9],5 (5 indicates 40-79% mortality)
